Results reported in US10913750B2, “Tubulin-binding compounds, compositions and uses related thereto” (The Regents of the University of California, priority 2015, dated 2021).

Legend:
M233 = assay: Melanoma colony formation, M233; assay type: cell-based; conditions: 10 nM, M233 (first value of pair)
Procedure: (§1) To determine if MI-181 had broad anti-cancer activity, we treated a diverse panel of cancer cell lines including cervical adenocarcinoma (HeLa), breast adenocarcinoma (MCF7), melanoma (M233), osteosarcoma (U205), acute lymphoblastic leukemia (CCRF-CEM), non-small cell lung carcinoma (NCI-H460), and breast adenocarcinoma (MCF7) with MI-181 and determined its cell viability IC50 (FIGS. 13A and 13B). […] Therefore, the efficacy of MI-181 was analyzed in a panel of melanoma cell lines with defined genetic backgrounds including BRAF^V600E and NRAS^Q61L mutations and varied sensitivities to Vemurafenib (BRAF inhibitor) and Trametinib (MEK inhibitor), which are currently used to treat BRAF^V600E melanomas^43,44 (FIG. 10c). […] As a general trend BRAF^V600E cell lines were slightly more sensitive than NRAS^Q61L cell lines and MI-181 was effective in Vemurafenib and Trametinib resistant cell lines (FIG. 10c and Table 3). Finally, we tested the ability of MI-181 to inhibit melanoma colony formation using the M233 and M308 cell lines (both resistant to Vemurafenib). Indeed, MI-181 was a potent inhibitor of colony formation (percentage colony formation for 10 nM MI-181=0.2±0.1 and 0.8±0.7; for 10 nM colchicine=0.1±0.06 and 1.5±0.5; and for 10 nM Vemurafenib=94±7 and 102±5) (FIG. 10d). Thus, MI-181 is a potent inhibitor of melanoma cell lines.

M308 = assay: Melanoma colony formation, M308; assay type: cell-based; conditions: 10 nM, M308 (second value of pair)
Procedure: as §1

HeLa cells [1] = assay: CellTiter-Glo cell viability, HeLa cells; assay type: cell-based; conditions: Homo sapiens; HeLa cells, 72 hours, CellTiter-Glo
Procedure: (§2) The cell viability IC50 of each compound was determined using Promega CellTiter-Glo Luminescent Cell Viability Assay kit by measuring the total ATP levels to quantify the number of metabolically active cells upon drug treatment as described in Crouch et al., J Immunol Methods 1993, 160, (1), 81-8. Briefly, the compounds were suspended in DMSO at 10 mM and diluted in 384 plates (20 μl/well in DMSO) in triplicate by a 14-point titration (12 nM to 100 μM). 50 μl of HeLa cells or patient derived glioblastoma cells (HK-309) (2000 cells/well) were then treated with the prepared dilutions of the drugs (0.5 μl) and incubated at 37° C. and 5% CO2. 72 hours later 50 μl of CellTiter-Glo reagent was added to each well followed by a 2 minutes shaking and a 10-minute incubation to lyse the cells. The relative luminescent intensity units (RLU) of each well was measured using a Tecan M1000 microplate reader (Tecan Group Ltd.) with its green filter and 1 second integration time.
(§3) Cells used in Example 2 and other examples disclosed herein were cultured as follows: Adherent HeLa cells and patient derived glioblastoma cells were grown with 5% CO2 at 37° C. in F12:DMEM 50:50 medium (Invitrogen) containing 10% FBS and 1% penicillin/streptomycin. To obtain HeLa cells synchronized in mitosis, cycling cells were treated with 2 mM thymidine (Sigma-Aldrich) for eighteen hours, washed three times with PBS, and released into fresh media until they entered mitosis eight hours post-release. Patient-derived glioblastoma cells (HK-309) were collected and grown with approval from the UCLA Institutional Review Board. HK-309 was derived from a recurrent glioblastoma taken from a person. The cells were initially propagated as cancer stem cell-containing spheres in serum-free medium containing basic fibroblast growth factor and epidermal growth factor (Preprotech) as described previously by Visnyei et al., Mol Cancer Ther 2011, 10, (10), 1818-28.
For mitotic arrest IC50s, cells were treated with a twenty-point-2-fold-titration (190 pM to 10 μM) of each compound tested for 20 hours. For cell viability IC50s, cells were treated with a fourteen-point-2-fold-titration (12.2 nM to 100 μM). Mitotic arrest IC50 was determined by measuring the percent G2/M arrest using the Vybrant DyeCycle Green (Invitrogen) assay described above. Cell viability IC50 was determined using the CellTiter-Glo Assay (Promega), which measures total ATP levels. Plates were read with a Tecan M1000 micro-plate reader at 540 nm. The CDD software was used for generating IC50 and IC90 values.

[2] = tested on: patient-derived glioblastoma cells (HK-309); assay: CellTiter-Glo cell viability, patient-derived glioblastoma cells; assay type: cell-based; conditions: HK-309, 72 hours
Procedure: as §2, §3

tubulin = biological target: T1, tubulin (Sus scrofa, UniProt P02554); assay: In vitro tubulin polymerization assay (HTS-tubulin polymerization kit, Cytoskeleton); assay type: biochemical; conditions: 3 μM compound, fluorescence, 70 minutes at 37° C.
T1 construct: purchased Cytoskeleton Inc. BK011P
T1 sequence (P02554 whole entry): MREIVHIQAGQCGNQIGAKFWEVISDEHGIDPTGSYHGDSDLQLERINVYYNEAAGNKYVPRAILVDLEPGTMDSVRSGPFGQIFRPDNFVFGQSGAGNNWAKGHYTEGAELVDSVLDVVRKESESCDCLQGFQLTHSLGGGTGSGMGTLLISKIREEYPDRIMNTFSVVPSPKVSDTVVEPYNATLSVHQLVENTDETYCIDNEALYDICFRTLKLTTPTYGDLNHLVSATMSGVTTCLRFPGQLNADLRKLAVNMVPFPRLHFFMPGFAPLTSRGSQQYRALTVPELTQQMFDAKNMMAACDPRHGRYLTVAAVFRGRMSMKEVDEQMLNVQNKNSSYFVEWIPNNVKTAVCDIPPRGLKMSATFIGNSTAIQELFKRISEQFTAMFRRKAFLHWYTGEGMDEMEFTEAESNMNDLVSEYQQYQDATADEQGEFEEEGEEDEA
T1 sequence (P02550 whole entry partner): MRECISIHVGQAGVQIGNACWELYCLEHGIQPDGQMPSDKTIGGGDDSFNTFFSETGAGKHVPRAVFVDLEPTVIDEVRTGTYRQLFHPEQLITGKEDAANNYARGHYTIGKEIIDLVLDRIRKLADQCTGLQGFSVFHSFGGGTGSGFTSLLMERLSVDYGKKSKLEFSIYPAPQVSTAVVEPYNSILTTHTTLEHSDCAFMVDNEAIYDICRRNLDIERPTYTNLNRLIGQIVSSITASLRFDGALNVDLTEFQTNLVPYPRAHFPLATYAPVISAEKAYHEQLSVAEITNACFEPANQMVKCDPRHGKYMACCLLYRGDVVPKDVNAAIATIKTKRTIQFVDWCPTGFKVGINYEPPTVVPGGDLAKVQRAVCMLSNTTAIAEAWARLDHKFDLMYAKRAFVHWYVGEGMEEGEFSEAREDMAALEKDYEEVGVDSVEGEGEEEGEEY
Procedure: 1.5 ul of 10× strength compound, 20 μl of tubulin solution and Triton X-100 at a final concentration of 0.01% were added to each well in a 384 well plate. The reactions were assembled on ice to prevent tubulin pre-polymerization. For kinetic measurements, microtubule polymerization was monitored by reading the fluorescence at 420 nm (due to the incorporation of a fluorescent reporter into microtubules as polymerization occurs) every ten seconds using a Tecan M1000 microplate reader (FIG. 6B). […] Fluorescence increased as polymerization occurred, due to the incorporation of 4′,6-diamidino-2-phenylindole. Fluorescence was monitored every minute for 70 minutes at 37° C.
Tubulin polymerization reactions were carried out according to the manufacturer (Cytoskeleton, BK011P) in the presence of 3 μM colchicine, MI-181, taxol or DMSO. Polymerization was monitored with a Tecan M1000 micro-plate reader at 420 nm for 70 minutes at 37° C. The results are depicted in FIG. 11.

HeLa cells [3] = assay: Microtubule stability by immunofluorescence microscopy; assay type: cell-based; conditions: increasing concentrations, anti-α-tubulin staining
Procedure: Next, microtubule stability was analyzed in HeLa cells treated with increasing concentrations of each of these three compounds by fixing the cells with 4% paraformaldehyde, staining them with Hoechst 33342 (DNA dye) to visualize their DNA and anti-α-tubulin antibodies to visualize microtubule structures and then imaging them by immunofluorescence microscopy.

IC50 (HeLa cells [1]) [µM] | Structure (SMILES) | other results
 | COc1cc2c(c(OC)c1OC)-c1ccc(OC)c(=O)cc1[C@@H](NC(C)=O)CC2 [colchicine] | percentage colony formation (M233): 0.1±0.06; percentage colony formation (M308): 1.5±0.5
> 100 | Cc1cccc(/C=C/c2nc3sc4c(c3c(=O)[nH]2)CCCC4)c1 [Compound 10g, (E)-2-(3-methylstyryl)-5,6,7,8-tetrahydrobenzo[4,5]thieno[2,3-d]pyrimidin-4(3H)-one] | 
6.31 | CSc1ccc(/C=C/c2nc3sc4c(c3c(=O)[nH]2)CCCC4)cc1 [Compound 10e, (E)-2-(4-methylthiostyryl)-5,6,7,8-tetrahydrobenzo[4,5]thieno[2,3-d]pyrimidin-4(3H)-one] | 
> 100 | COc1ccc(/C=C/c2nc3sc4c(c3c(=O)[nH]2)CCCC4)cc1OC [Compound 10k, (E)-2-(3,4-dimethoxystyryl)-5,6,7,8-tetrahydrobenzo[4,5]thieno[2,3-d]pyrimidin-4(3H)-one] | 
0.246 | O=c1[nH]c(/C=C/c2ccc(F)cc2F)nc2sc3c(c12)CCCC3 [Compound 10a, (E)-2-(2,4-difluorostyryl)-5,6,7,8-tetrahydrobenzo[4,5]thieno[2,3-d]pyrimidin-4(3H)-one] | IC50 [2]: 0.283 µM; inhibition of microtubule (tubulin) polymerization in vitro (tubulin): potent inhibitors of microtubule polymerization similar to colchicine; microtubule stability in treated cells (HeLa cells [3]): destabilized in a drug dose-dependent manner
25.9 | CCOc1ccc(/C=C/c2nc3sc4c(c3c(=O)[nH]2)CCCC4)cc1OC [Compound 10f, (E)-2-(4-ethoxy-3-methoxystyryl)-5,6,7,8-tetrahydrobenzo[4,5]thieno[2,3-d]pyrimidin-4(3H)-one] | 
0.159 | O=c1[nH]c(/C=C/c2cc(F)ccc2F)nc2sc3c(c12)CCCC3 [Compound 10b, (E)-2-(2,5-difluorostyryl)-5,6,7,8-tetrahydrobenzo[4,5]thieno[2,3-d]pyrimidin-4(3H)-one] | IC50 [2]: 0.113 µM; inhibition of microtubule (tubulin) polymerization in vitro (tubulin): potent inhibitors of microtubule polymerization similar to colchicine; microtubule stability in treated cells (HeLa cells [3]): destabilized in a drug dose-dependent manner
> 100 | O=c1[nH]c(/C=C/c2ccccc2C(F)(F)F)nc2sc3c(c12)CCCC3 [Compound 10u] | 
> 100 | O=c1[nH]c(/C=C/c2ccc(Br)cc2)nc2sc3c(c12)CCCC3 [Compound 10i, (E)-2-(4-bromostyryl)-5,6,7,8-tetrahydrobenzo[4,5]thieno[2,3-d]pyrimidin-4(3H)-one] | 
4.21 | COc1cccc(/C=C/c2nc3sc4c(c3c(=O)[nH]2)CCCC4)c1 [Compound 10d, (E)-2-(3-methoxystyryl)-5,6,7,8-tetrahydrobenzo[4,5]thieno[2,3-d]pyrimidin-4(3H)-one] | 
 | CCCS(=O)(=O)Nc1ccc(F)c(C(=O)c2c[nH]c3ncc(-c4ccc(Cl)cc4)cc23)c1F [Vemurafenib] | percentage colony formation (M233): 94±7; percentage colony formation (M308): 102±5
> 100 | O=c1[nH]c(/C=C/c2ccc(F)c(F)c2)nc2sc3c(c12)CCCC3 [Compound 10j, (E)-2-(3,4-difluorostyryl)-5,6,7,8-tetrahydrobenzo[4,5]thieno[2,3-d]pyrimidin-4(3H)-one] | 
50.9 | COc1ccc(/C=C/c2nc3sc4c(c3c(=O)[nH]2)CCCC4)cc1 [Compound 10h, (E)-2-(4-methoxystyryl)-5,6,7,8-tetrahydrobenzo[4,5]thieno[2,3-d]pyrimidin-4(3H)-one] | 
1.11 | O=c1[nH]c(/C=C/c2ccc(F)cc2)nc2sc3c(c12)CCCC3 [Compound 10c, (E)-2-(4-fluorostyryl)-5,6,7,8-tetrahydrobenzo[4,5]thieno[2,3-d]pyrimidin-4(3H)-one] | 
> 100 | CCOc1ccc(/C=C/c2nc3sc4c(c3c(=O)[nH]2)CCCC4)cc1 [Compound 10l, (E)-2-(4-ethoxystyryl)-5,6,7,8-tetrahydrobenzo[4,5]thieno[2,3-d]pyrimidin-4(3H)-one] | 
> 100 | Cc1ccc(/C=C/c2nc3sc4c(c3c(=O)[nH]2)CCCC4)cc1 [Compound 10m, (E)-2-(4-methylstyryl)-5,6,7,8-tetrahydrobenzo[4,5]thieno[2,3-d]pyrimidin-4(3H)-one] | 
